Experiment [1] is described as follows: Bevacizumab incubated with free paclitaxel, Western blot with anti-paclitaxel antibody. In kind it is binding. To be noted: 4 mg bevacizumab, paclitaxel 0.1-2 mg, 30 minutes room temperature. The protocol: The following was performed to determine if bevacizumab binds free paclitaxel. 4 mg of bevacizumab was incubated with paclitaxel (0.1, 0.5, 1, or 2 mg) for 30 minutes at room temperature.

The nature of experiment [2]: Complex formation of labeled antibodies with labeled Abraxane nanoparticles, flow cytometry. To be noted: fluorescently labeled antibody and nanoparticles. In kind it is binding. In general terms: In flow cytometry, cells or beads pass a laser one at a time.
Description: Three therapeutic monoclonal antibodies (bevacizumab, trastuzamab, and rituxan) were fluorescently labeled and incubated with fluorescently labeled Abraxane® nanoparticles. The particles were spun down, washed, and visualized by flow cytometry.

Consider “bevacizumab: Humanized monoclonal antibody that binds to vascular endothelial growth factor A”, for which the “binding of free paclitaxel” value in experiment [1] is reported as “did not bind”. In experiment [2], the “complex formation with Abraxane nanoparticles” value is recorded as “spontaneously formed complexes”.
“rituxan: Therapeutic monoclonal antibody”: the “complex formation with Abraxane nanoparticles” value in experiment [2] is given as “spontaneously formed complexes”.

Source of the values: patent US10765741B2, “Methods for treating VEGF-expressing cancer using preformed nanoparticle complexes comprising albumin-bound paclitaxel and bevacizumab” (Mayo Foundation for Medical Education and Research, priority 2011, dated 2020).
